Results: US9814732B2, “Ulipristal acetate for prevention and treatment of breast tumors” (LABORATOIRE HRA-PHARMA, priority 2012, dated 2017)

Columns and labels:
[1] = system: GR target genes (IEX-1, G0S8, cyclin A, BCL2); assay: qRT-PCR mRNA expression of GR target genes in HBE cells; type: cell-based, human
Method: (§1) After seeding, cells were cultured for 24 h in serum and phenol red free medium. Then treatments were carried out in a phenol red free medium containing 5% dextran-charcoal stripped serum. Cells were treated with P or DEX (100 nM), alone or in combination with UPA, RU (1 nM to 1 μM) or CDB-3877 (100 nM). Control cells were treated with ethanol, at […] 1:1000 final ethanol concentration alone as vehicle or E2 (10 nM).
(§2) Total RNA was extracted using TriZOL Reagent (Invitrogen, Cergy-Pontoise, France).
(§3) 2 μg of total RNA was subjected to reverse transcription (RT) using random primers for 1 h at 37° C. 2 μl of RT product was diluted (1:10) and subjected to quantitative PCR using sequence specific primers (300 nM) and Brillant SYBR GREEN QPCR master mix (Fermentas, Saint-Rémy-lès-Chevreuse, France) on an Mx3000P apparatus (Agilent Technologies, Massy, France). Conditions were 1 cycle at 95° C. for 10 min followed by 40 cycles at 95° C. for 30 sec, 60° C. for 1 min and 72° C. for 30 sec. Gene expression values were normalized to the housekeeping gene 36B4. Time of steroid treatment was chosen to get the optimal stimulation for a given gene. ALPL and G0S8 mRNA were analyzed after 6 h of treatment. IEX-1, FASN, and BCL2 were analyzed after 24 h of treatment. Cyclin A mRNA was analyzed after 24 h for GR responses or 48 h for PR responses.

MCF-7 cells = assay: Tritiated thymidine incorporation (proliferation) in MCF-7 cells; type: cell-based, human; details: 48 h
Method: as §1
(§4) After 24 h of hormonal treatment, cells were incubated with [methyl-1 3H] thymidine (Perkin Elmer, Courtaboeuf, France) for 48 h or 20 h for KBE or cancer cells, respectively at 37° C. After incubation cells were washed twice with PBS 1× and once with 5% trichloroacetic acid (TCA). Cells were incubated in 5% TCA for 15 min at 4° C. and lysed in NaOH 0.1 N for 30 min at 37° C. The total cell lysate was added to 5 ml of Ecolite scintillation liquid (MP biomedical, Illkirch, France) and radioactivity was counted with a β-counter HIDEX 300SL (ScienceTec, Courtaboeuf, France).

[2] = system: PR target genes (FASN, cyclin A, BCL2, ALPL); assay: qRT-PCR mRNA expression of PR target genes in HBE cells; type: cell-based, human
Method: as §1, §2, §3

T-47D cells = assay: Tritiated thymidine incorporation (proliferation) in T-47D cells; type: cell-based, human; details: 48 h
Method: as §1, §4

GR [3] = molecular target: T1, GR (Homo sapiens, UniProt P04150); assay: GRE-Luc reporter gene transactivation in HBE cells; type: cell-based; details: DEX 100 nM, test compound 100 nM, read-out: inhibition of DEX induced luciferase transactivation (GRE-Luc)
T1 sequence (P04150 1-777): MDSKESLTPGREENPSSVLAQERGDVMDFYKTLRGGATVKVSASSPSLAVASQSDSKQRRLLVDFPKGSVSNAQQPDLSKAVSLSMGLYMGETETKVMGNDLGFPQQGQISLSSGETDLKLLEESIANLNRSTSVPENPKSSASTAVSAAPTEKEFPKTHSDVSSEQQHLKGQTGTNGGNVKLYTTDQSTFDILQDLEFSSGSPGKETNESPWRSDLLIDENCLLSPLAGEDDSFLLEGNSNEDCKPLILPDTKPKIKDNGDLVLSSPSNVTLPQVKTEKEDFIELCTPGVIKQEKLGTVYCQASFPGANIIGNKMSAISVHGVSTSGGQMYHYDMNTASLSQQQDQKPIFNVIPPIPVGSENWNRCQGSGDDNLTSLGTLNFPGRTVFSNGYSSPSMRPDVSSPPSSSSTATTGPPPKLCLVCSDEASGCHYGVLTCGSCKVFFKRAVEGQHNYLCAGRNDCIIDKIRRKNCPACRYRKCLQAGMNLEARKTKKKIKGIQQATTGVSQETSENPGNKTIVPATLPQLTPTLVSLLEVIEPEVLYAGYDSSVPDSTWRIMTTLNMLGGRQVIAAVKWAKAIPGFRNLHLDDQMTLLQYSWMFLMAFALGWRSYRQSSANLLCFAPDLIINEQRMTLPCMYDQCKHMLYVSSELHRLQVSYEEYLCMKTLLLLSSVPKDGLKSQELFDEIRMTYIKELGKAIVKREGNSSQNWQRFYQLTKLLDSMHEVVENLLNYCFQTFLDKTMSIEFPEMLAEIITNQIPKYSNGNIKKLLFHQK

GR [4] = molecular target: T1, GR; assay: GRE-Luc reporter gene transactivation in MCF-7 cells; type: cell-based; parameters: endogenous in cells; host or cells: MCF-7; details: MCF7, DEX 100 nM, test compound 100 nM, read-out: inhibition of DEX-induced luciferase transactivation (GRE-Luc)
[5] = P and/or UPA 100 nM, E2 10 nM, 24 h

CC(=O)O[C@]1(C(C)=O)CCC2C3CCC4=CC(=O)CCC4=C3[C@@H](c3ccc(N(C)C)cc3)C[C@@]21C (stereo partly drawn) [UPA, 17[…]-acetoxy-11[…]-[4-N,N-dimethylamino-phenyl)-19-norpregna-4,9-diene-3,20-dione]
G0S8 mRNA expression ([1]; DEX and/or UPA 100 nM, 6 h): slight and non-significant antagonist effect | BCL2 mRNA expression (GR response) ([1]; DEX and/or UPA 100 nM, 24 h): did not reverse the DEX down-regulation of BCL2 mRNA | IEX-1 mRNA expression ([1]; DEX and/or UPA 100 nM, 24 h): did not antagonize this response | cyclin A mRNA expression (GR response) ([1]; DEX and/or UPA 100 nM, 24 h): partially inhibited DEX effect on cyclin A mRNA expression | glucocorticoid agonist activity on GR target genes ([1]; UPA 100 nM alone): did not display any glucocorticoid agonist activity | cell proliferation ([3H] thymidine incorporation), compound alone (MCF-7 cells; 100 nM): had no effect on proliferation | effect of UPA on DEX-mediated proliferation change (MCF-7 cells; DEX 100 nM + UPA 100 nM): tended to prevent the weak anti-proliferative effects of DEX | BCL2 mRNA expression (PR response) [2, 5]: did not reverse BCL2 mRNA down-regulation induced by P | FASN mRNA expression [2, 5]: able to prevent P induction of FASN mRNA expression | cyclin A mRNA expression (PR response) ([2]; P and/or UPA 100 nM, E2 10 nM, 48 h): reversed P-induced cyclin A mRNA down-regulation | PR agonist activity on PR target genes ([2]; UPA 100 nM alone): did not display any PR agonist activity | cell proliferation ([3H] thymidine incorporation), compound alone (T-47D cells; 100 nM): had no effect on proliferation | effect of UPA on P-mediated proliferation change (T-47D cells; P 100 nM + UPA 100 nM): reversed P anti-proliferative activity | inhibition at 0.1 µM (GR [3]): 41.3 ± 5.8% | inhibition at 0.1 µM (GR [4]): 59 ± 3.4%
